From ChEMBL document CHEMBL5665443, “Enzyme Inhibitor Single Concentration assay results for EUbOPEN Chemogenomics Library” (2024)

How the values were obtained:
[1] = target: T1, Single-strand selective monofunctional uracil DNA glycosylase (Homo sapiens) (UniProt Q53HV7); settings: Hit No;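 further: enzymatic SMUG1 assay coupled with APE1, reading fluorescence at 594 nm released when a quenched double-stranded DNA oligonucleotide substrate is cleaved and separated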
T1 sequence (whole entry): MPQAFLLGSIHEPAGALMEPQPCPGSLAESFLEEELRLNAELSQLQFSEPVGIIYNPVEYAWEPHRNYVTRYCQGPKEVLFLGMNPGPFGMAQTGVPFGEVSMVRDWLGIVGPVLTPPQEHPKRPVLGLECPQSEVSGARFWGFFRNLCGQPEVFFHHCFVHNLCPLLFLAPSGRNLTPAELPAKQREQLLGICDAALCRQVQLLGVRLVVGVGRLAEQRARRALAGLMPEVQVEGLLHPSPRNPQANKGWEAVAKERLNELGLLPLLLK
Description: Inhibition of SMUG1 by quantifying inhibition of SMUG1-mediated cleavage and dissociation of quenched duplex DNA oligonucleotides, measured as fluorescence at 594 nm. To generate a functional strand incision and increase turn-over this assay is coupled to APE1.

[2] = target: T2, Endonuclease 8-like 2 (Homo sapiens) (UniProt Q969S2); settings: Compound Concentration 10.0 uM;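 further: fluorescence at 594 nm reports NEIL2 cutting and release of a quenched double-stranded DNA oligo substrate, reduced signal read as inhibition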
T2 sequence (whole entry): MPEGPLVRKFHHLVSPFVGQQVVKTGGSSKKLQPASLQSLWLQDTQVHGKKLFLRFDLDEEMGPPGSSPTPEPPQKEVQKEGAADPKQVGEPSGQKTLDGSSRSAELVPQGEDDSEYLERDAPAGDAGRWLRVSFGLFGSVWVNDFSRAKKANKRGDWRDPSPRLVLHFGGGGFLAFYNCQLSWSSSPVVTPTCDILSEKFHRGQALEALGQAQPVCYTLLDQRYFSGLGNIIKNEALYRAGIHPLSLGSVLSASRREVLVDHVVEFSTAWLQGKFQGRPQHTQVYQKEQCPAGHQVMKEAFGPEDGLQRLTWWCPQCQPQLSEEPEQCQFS
Description: Inhibition of NEIL2 by quantifying inhibition of NEIL2-mediated cleavage and dissociation of quenched duplex DNA oligonucleotides, measured as fluorescence at 594 nm.

[3] = target: DNA-3-methyladenine glycosylase (Homo sapiens) (UniProt P29372); settings: Compound Concentration 10.0 uM, Hit No;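 further: enzyme assay where MPG cuts a quenched duplex DNA oligonucleotide probe, paired with APE1 for strand incision and turnover, read as fluorescence at 594 nm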
Sequence of DNA-3-methyladenine glycosylase (Homo sapiens) (P29372 whole entry): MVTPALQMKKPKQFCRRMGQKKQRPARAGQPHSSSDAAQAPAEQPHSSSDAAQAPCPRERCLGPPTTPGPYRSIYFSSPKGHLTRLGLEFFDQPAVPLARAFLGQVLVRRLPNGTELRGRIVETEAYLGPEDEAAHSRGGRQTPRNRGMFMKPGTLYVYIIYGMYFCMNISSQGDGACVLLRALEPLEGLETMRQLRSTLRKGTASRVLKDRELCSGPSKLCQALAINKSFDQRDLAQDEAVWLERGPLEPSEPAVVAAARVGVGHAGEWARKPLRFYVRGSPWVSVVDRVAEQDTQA
Description: Inhibition of MPG by quantifying inhibition of MPG-mediated cleavage and dissociation of quenched duplex DNA oligonucleotides, measured as fluorescence at 594 nm. To generate a functional strand incision and increase turn-over this assay is coupled to APE1.

[4] = target: T3, Endonuclease III-like protein 1 (Homo sapiens) (UniProt P78549); settings: Hit No;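 further: enzyme assay tracking NTHL1 cutting and release of a quenched double-stranded DNA oligo substrate, read as fluorescence at 594 nm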
T3 sequence (whole entry): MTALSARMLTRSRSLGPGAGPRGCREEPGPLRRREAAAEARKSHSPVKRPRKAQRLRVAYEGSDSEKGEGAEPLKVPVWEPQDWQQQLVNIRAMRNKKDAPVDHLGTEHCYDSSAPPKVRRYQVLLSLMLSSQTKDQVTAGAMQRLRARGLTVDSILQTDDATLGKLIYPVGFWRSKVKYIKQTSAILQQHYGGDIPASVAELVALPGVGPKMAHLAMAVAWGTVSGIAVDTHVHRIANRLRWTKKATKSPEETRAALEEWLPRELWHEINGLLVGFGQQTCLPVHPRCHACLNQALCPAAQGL
Description: Inhibition of NTHL1 by quantifying inhibition of NTHL1-mediated cleavage and dissociation of quenched duplex DNA oligonucleotides, measured as fluorescence at 594 nm.

[5] = target: Methyl-CpG-binding domain protein 4 (Homo sapiens) (UniProt O95243); settings: Hit No;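 further: MBD4 activity read as fluorescence at 594 nm from cleavage and release of a quenched duplex DNA oligonucleotide, with APE1 coupled to incise the strand and raise turnover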
Sequence of Methyl-CpG-binding domain protein 4 (Homo sapiens) (O95243 whole entry, the tested form may be a part): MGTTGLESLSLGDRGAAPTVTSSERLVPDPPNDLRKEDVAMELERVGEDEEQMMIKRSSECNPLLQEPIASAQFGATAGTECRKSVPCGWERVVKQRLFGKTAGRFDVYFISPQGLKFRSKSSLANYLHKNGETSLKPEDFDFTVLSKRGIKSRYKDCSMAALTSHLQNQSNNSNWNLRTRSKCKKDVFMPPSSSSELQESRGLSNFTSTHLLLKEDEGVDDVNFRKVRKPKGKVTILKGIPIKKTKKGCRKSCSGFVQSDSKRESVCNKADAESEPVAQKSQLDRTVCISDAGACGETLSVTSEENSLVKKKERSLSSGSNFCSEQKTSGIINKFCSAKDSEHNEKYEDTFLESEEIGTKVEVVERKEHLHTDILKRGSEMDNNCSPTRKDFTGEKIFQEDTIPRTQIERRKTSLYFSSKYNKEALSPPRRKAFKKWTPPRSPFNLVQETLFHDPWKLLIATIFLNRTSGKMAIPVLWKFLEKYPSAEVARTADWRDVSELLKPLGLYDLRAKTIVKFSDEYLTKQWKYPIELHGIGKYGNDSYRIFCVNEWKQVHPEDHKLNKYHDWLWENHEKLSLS
Description: Inhibition of MBD4 by quantifying inhibition of MBD4-mediated cleavage and dissociation of quenched duplex DNA oligonucleotides, measured as fluorescence at 594 nm. To generate a functional strand incision and increase turn-over this assay is coupled to APE1.

[6] = target: Uracil-DNA glycosylase (Homo sapiens) (UniProt P13051); settings: Hit No;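 further: UNG excision on a quenched double-stranded DNA oligo probe, with APE1 added for strand incision and turnover, read as fluorescence at 594 nm as strands separate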
Sequence of Uracil-DNA glycosylase (Homo sapiens) (P13051 whole entry): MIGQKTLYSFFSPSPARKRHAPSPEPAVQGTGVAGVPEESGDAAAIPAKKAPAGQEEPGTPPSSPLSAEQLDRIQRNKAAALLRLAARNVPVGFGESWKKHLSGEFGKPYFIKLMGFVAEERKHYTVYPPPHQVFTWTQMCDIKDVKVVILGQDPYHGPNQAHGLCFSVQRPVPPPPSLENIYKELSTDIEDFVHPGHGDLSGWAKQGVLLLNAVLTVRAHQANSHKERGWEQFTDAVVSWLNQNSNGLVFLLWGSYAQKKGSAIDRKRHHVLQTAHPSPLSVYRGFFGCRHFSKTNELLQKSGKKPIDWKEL
Description: Inhibition of UNG by quantifying inhibition of UNG-mediated cleavage and dissociation of quenched duplex DNA oligonucleotides, measured as fluorescence at 594 nm. To generate a functional strand incision and increase turn-over this assay is coupled to APE1.

[7] = target: G/T mismatch-specific thymine DNA glycosylase (Homo sapiens) (UniProt Q13569); settings: Hit No;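 further: human TDG cleavage of quenched duplex DNA oligonucleotides coupled to APE1, strand release read as fluorescence at 594 nm, inhibition of TDG activity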
Sequence of G/T mismatch-specific thymine DNA glycosylase (Homo sapiens) (Q13569 whole entry): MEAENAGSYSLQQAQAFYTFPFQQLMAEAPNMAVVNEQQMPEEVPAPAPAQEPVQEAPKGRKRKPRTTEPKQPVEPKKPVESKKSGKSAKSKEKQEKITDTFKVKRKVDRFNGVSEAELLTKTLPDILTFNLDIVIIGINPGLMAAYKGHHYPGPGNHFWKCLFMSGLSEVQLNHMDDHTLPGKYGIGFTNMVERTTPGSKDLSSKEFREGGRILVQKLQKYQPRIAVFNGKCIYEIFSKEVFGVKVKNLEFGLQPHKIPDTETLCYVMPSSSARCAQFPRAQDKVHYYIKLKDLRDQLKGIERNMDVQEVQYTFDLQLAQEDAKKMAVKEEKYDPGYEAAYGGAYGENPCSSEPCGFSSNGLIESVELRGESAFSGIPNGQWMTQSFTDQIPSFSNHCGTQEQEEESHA
Description: Inhibition of TDG by quantifying inhibition of TDG-mediated cleavage and dissociation of quenched duplex DNA oligonucleotides, measured as fluorescence at 594 nm. To generate a functional strand incision and increase turn-over this assay is coupled to APE1.

[8] = target: T4, Adenine DNA glycosylase (Homo sapiens) (UniProt Q9UIF7); settings: Hit No;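 further: human MUTYH activity read as 594 nm fluorescence from cleavage and release of a quenched DNA duplex, coupled with APE1 for strand incision, lower signal meaning inhibition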
T4 sequence (whole entry): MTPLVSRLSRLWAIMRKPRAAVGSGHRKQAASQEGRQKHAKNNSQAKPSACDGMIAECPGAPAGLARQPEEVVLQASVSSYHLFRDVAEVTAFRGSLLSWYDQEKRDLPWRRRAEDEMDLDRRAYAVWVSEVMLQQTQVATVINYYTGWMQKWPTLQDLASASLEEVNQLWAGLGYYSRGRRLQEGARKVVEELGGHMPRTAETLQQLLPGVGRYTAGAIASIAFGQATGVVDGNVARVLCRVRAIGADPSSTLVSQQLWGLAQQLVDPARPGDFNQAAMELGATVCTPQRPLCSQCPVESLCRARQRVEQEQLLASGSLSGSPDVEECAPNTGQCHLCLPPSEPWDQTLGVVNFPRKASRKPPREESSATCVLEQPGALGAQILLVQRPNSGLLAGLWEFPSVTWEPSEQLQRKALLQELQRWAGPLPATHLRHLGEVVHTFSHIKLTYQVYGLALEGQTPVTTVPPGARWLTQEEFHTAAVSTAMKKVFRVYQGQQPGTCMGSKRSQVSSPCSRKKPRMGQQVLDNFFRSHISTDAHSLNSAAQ
Description: Inhibition of MUTYH by quantifying inhibition of MUTYH-mediated cleavage and dissociation of quenched duplex DNA oligonucleotides, measured as fluorescence at 594 nm. To generate a functional strand incision and increase turn-over this assay is coupled to APE1.

[9] = target: Endonuclease 8-like 1 (Homo sapiens) (UniProt Q96FI4); settings: Hit No;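 further: fluorescence at 594 nm from quenched duplex DNA oligonucleotides released by NEIL1 cleavage and strand separation, reported as reduction of this enzyme activity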
Sequence of Endonuclease 8-like 1 (Homo sapiens) (Q96FI4 whole entry): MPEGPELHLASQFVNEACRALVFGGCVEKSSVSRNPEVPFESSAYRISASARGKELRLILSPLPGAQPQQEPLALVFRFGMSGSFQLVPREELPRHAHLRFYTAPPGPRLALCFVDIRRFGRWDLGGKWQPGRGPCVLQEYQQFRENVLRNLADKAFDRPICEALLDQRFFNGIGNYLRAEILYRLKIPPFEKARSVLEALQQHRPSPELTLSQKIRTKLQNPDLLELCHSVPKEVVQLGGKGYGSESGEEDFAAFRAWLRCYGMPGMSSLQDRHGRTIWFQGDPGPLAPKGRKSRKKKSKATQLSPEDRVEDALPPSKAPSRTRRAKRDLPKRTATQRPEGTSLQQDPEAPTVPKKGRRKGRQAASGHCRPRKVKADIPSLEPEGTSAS
Description: Inhibition of NEIL1 by quantifying inhibition of NEIL1-mediated cleavage and dissociation of quenched duplex DNA oligonucleotides, measured as fluorescence at 594 nm.

[10] = target: N-glycosylase/DNA lyase (Homo sapiens) (UniProt O15527);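 further: OGG1 cleavage of a quenched duplex DNA oligonucleotide, coupled to APE1 for strand incision, read as fluorescence at 594 nm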
Sequence of N-glycosylase/DNA lyase (Homo sapiens) (O15527 whole entry): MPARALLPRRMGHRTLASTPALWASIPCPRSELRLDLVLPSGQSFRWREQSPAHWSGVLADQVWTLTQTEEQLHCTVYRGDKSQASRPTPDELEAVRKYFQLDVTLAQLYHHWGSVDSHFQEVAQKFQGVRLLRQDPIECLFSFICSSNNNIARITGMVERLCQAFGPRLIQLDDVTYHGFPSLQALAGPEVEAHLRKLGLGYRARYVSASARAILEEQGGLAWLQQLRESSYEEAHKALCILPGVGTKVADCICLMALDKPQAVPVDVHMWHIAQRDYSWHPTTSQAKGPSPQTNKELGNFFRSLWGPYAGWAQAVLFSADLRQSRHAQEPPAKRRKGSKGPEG
Description: Inhibition of OGG1 by quantifying inhibition of OGG1-mediated cleavage and dissociation of quenched duplex DNA oligonucleotides, measured as fluorescence at 594 nm. To generate a functional strand incision and increase turn-over this assay is coupled to APE1.

[11] = Compound Concentration 10.0 uM, Hit No
[12] = Compound Concentration 10.0 uM, Hit Yes

Row | Compound | inhibition ([1]; Compound Concentration 10.0 uM) [%] | inhibition ([2]; Hit No) [%] | inhibition [3] [%] | inhibition ([4]; Compound Concentration 10.0 uM) [%] | inhibition ([5]; Compound Concentration 10.0 uM) [%] | inhibition ([6]; Compound Concentration 10.0 uM) [%] | inhibition ([7]; Compound Concentration 10.0 uM) [%] | inhibition ([8]; Compound Concentration 10.0 uM) [%] | inhibition ([9]; Compound Concentration 10.0 uM) [%] | inhibition [10, 11] [%] | inhibition ([1]; Compound Concentration 1.0 uM) [%] | inhibition ([4]; Compound Concentration 1.0 uM) [%] | inhibition ([5]; Compound Concentration 1.0 uM) [%] | inhibition ([6]; Compound Concentration 1.0 uM) [%] | inhibition ([7]; Compound Concentration 1.0 uM) [%] | inhibition ([8]; Compound Concentration 1.0 uM) [%] | inhibition ([9]; Compound Concentration 1.0 uM) [%] | inhibition ([10]; Compound Concentration 1.0 uM, Hit No) [%] | inhibition [10, 12] [%] | inhibition ([2]; Hit Yes) [%]
1 | O=C(NCC(=O)N1CC[C@H](N[C@H]2CC[C@@](O)(c3ccc(-c4ncccn4)cn3)CC2)C1)c1cccc(C(F)(F)F)c1 | 2.1 | 6.25 | -2.02 | 0.458 | -4.26 | -9.06 | 24.3 | 10.3 | 2.76 | 1.04 |  |  |  |  |  |  |  |  |  | 
2 | O=C(COc1cccc2ccccc12)Nc1cc(Cl)ccc1C(=O)O | 8.57 | 5.25 | 16.5 | 12.9 | 33.2 | 2.63 | 37.7 | 64.4 | 6.38 | 24.8 |  |  |  |  |  |  |  |  |  | 
3 | Cn1cc(Cl)c2c(Oc3c(F)cc(Nc4cc(Cl)nc(N)n4)cc3F)ccnc21 | 27.1 | 2.57 | -1.23 | -1.29 | 64.2 | 11.7 | 53.4 | 40.4 | 4.86 | -9.66 | 17.9 | 8.46 | -4.8 | 2.73 | 48.5 | 1.46 | -7.79 | -2.36 |  | 
4 | CC1(C)CCC[C@]2(C)[C@@H](C=O)C(C=O)=CC[C@@H]12 | 16.1 | 8.57 | 14.4 | -1.08 | 54.4 | 2.98 | 49 | 80.5 | -1.47 |  |  |  |  |  |  |  |  |  | 88.4 | 
5 | CCOC(=O)c1c(C)[nH]c2ccc3c(c12)CN1CCc2cc(OC)ccc2C1O3 (stereo not drawn) | 8.69 | 3.01 | 18.6 | -1.01 | 29.1 | -1.04 | 29.8 | 18.2 | -0.0556 | 32.3 |  |  |  |  |  |  |  |  |  | 
6 | FC(F)(F)c1ccccc1-c1cc(C(F)(F)F)c2[nH]c(C3=NOC4(CCCCC4)C3)nc2c1 | -0.41 | 0.669 | 0.733 | -6.04 | 2.91 | -6.03 | 6.11 | -3.71 | 0.00926 | -6.32 |  |  |  |  |  |  |  |  |  | 
7 | CCCCCN1C(=O)C2(COc3cc4c(cc32)OCO4)c2ccccc21 (stereo not drawn) | -6.34 | 0.924 | 32.6 | 18.7 | 29 | -5.87 | 18.1 | 13.2 | 0.00926 | 1.71 |  |  |  |  |  |  |  |  |  | 
8 | CCCCc1nc2ccc(NC(=O)NC3CCCCC3)cc2n1Cc1ccc(-c2ccccc2C(=O)O)cc1 | -6.72 | 11 | 24 | 8.52 | 30.2 | -9.57 | 33.1 | 38.2 | 9.29 | -1.26 |  |  |  |  |  |  |  |  |  | 
9 | CCOc1c2c(c(OCC)c3ncccc13)CN(c1ccc(CS(=O)(=O)NC(=O)Cc3ccccc3OC)cc1C)C2=O | -1.24 | 2.01 | -2.33 | 7.05 | 14.3 | -8.19 | 20.4 | 26.6 | 2.17 | 3.01 |  |  |  |  |  |  |  |  |  | 
10 | FC(F)(F)c1ccc(Nc2ncnc3cc(-c4ncccc4C(F)(F)F)ccc23)cc1 | 19.7 | 2.71 | 12.8 | -4.39 | 18.4 | 1.01 | 25 | 26.4 | 11.7 | 5.12 |  |  |  |  |  |  |  |  |  | 
11 | O=C(O)Cn1c(C(=O)Nc2nc(-c3ccccc3Cl)cs2)cc2ccccc21 | 5.06 | 0.265 | 17.4 | -9.07 | 38.1 | -4.79 | 39.6 | 40.1 | -4.5 | 6.47 |  |  |  |  |  |  |  |  |  | 
12 | FC(F)(F)Oc1ccc(-c2ccc3nnc(C(F)(F)F)n3c2)cc1 | -3.97 | -5.19 | 7.52 | 27.8 | 3.41 | -4.54 | -4.99 | -0.755 | 0.158 | -7.36 |  |  |  |  |  |  |  |  |  | 
13 | CCCCCC(O)/C=C/[C@H]1C(=O)CC(O)C1C/C=C\CCCC(=O)O (stereo partly drawn) | -9.9 |  | 15.9 | 12.9 | 33.6 | -3.89 | 32 | 12.9 | 5.49 | 8.62 |  |  |  |  |  |  |  |  |  | 41.2
14 | N#Cc1c(O)nc(SCc2cccc(F)c2F)nc1C1CC1 | 14.3 | 6.5 | 5.35 | 17.3 | 31 | -3.9 | 26.8 | 43.4 | -3.76 | 21.3 |  |  |  |  |  |  |  |  |  | 
15 | COc1cccc2c1c(NS(=O)(=O)c1ccc(Cl)s1)nn2Cc1cccc(CNC(=O)C(C)(C)O)c1 | -4.59 | 1.18 | -4.44 | 8 | 19.3 | -8.69 | 0.908 | 7.32 | -1.47 | -5.21 |  |  |  |  |  |  |  |  |  | 
16 | Nc1nc2cc(-c3cc(Cl)ccc3Oc3cc(F)c(S(=O)(=O)Nc4ncns4)cc3F)ccc2[nH]1 | 4.45 | -7.23 | 20.7 | 6.35 | 38.8 | 1.83 | 33.8 | 39.3 | 6.97 | -2.14 |  |  |  |  |  |  |  |  |  | 
17 | COc1cc(Nc2ccnc3ccc(Br)cc23)cc(OC)c1OC | 26.8 | 1.58 | 34.4 | 0.785 | 11.8 | 12.8 | 50.8 | 35 | 10 | 14.7 |  |  |  |  |  |  |  |  |  | 
18 | CS(=O)(=O)c1cccc(NC(=O)N(Cc2ccc(C(=O)Nc3nnn[nH]3)cc2)c2ccc(C3CCCCC3)cc2)c1 | 6.31 | 14.7 | 26.7 | 7.79 | 45.7 | -4.34 | 36.1 | 44.3 | 1.57 | 18.7 |  |  |  |  |  |  |  |  |  | 
19 | CN[C@@H]1CCc2[nH]c3ccc(C(N)=O)cc3c2C1 | -7.16 | -0.483 | -3.1 | -9.8 | 14.9 | -5.51 | 16.1 | -4.97 | 8.84 | 3.36 |  |  |  |  |  |  |  |  |  | 
20 | COc1ccc(/C=C/CCCCOc2ccc(C(=O)c3cccc(C(=O)O)c3)cc2CCC(=O)O)cc1 | 12.1 | 15.7 | 15.9 | 2.66 | 49.9 | -7.57 | 43.2 | 28.6 | -0.204 |  |  |  |  |  |  |  |  |  | 42.4 | 
